Key:
[1] = test system: patients with treatment-resistant major depressive disorder (TRD); assay: Phase 1/2 clinical trial of inhaled 5-MeO-DMT in TRD: MADRS; type: in vivo, human; settings: for mean MADRS change from baseline at day seven / mean MADRS change from baseline at day seven, percent: n=4
Excerpt: Patients were assigned to different groups.
This trial was designed in two parts.

[2] = test system: Salmonella typhimurium strains TA98, TA100, TA1535 and TA1537; assay: Bacterial mutation test, Salmonella typhimurium; type: cell-based; settings: up to 5000 μg/plate, absence and presence of rat liver S-9
Procedure: These conditions included treatments at concentrations up to 5000 μg/plate (the maximum recommended concentration according to current regulatory guidelines), in the absence and in the presence of a rat liver metabolic activation system (S-9).

[3] = 12 mg n=4 sum, 2 h after dose vs baseline
[4] = 12 mg n=4 sum, 2 h after dose, baseline 16
[5] = 12 mg n=4 sum, Day 1, baseline 16
[6] = 12 mg n=4 sum, Day 1 vs baseline
[7] = 12 mg n=4 sum, Day 7, baseline 16
[8] = 12 mg n=4 sum, Day 7 vs baseline
[9] = IDR n=8 sum, 2 h after last dose vs baseline

COc1ccc2[nH]cc(CCN(C)C)c2c1 [5-MeO-DMT]
MADRS Concentration Difficulties improvement [1, 3]: 9
MADRS Inability to Feel improvement [1, 3]: 7
MADRS Inner Tension improvement [1, 3]: 11
MADRS Lassitude improvement [1, 3]: 6
MADRS Pessimistic Thoughts improvement [1, 3]: 8
MADRS Pessimistic Thoughts percentage improvement [1, 3]: 50.00%
MADRS Suicidal Thoughts improvement [1, 3]: 5
MADRS Suicidal Thoughts score ([1]; 12 mg n=4 sum, 2 h after dose, baseline 8): 3
MADRS Inner Tension score ([1]; 12 mg n=4 sum, 2 h after dose, baseline 13): 2
MADRS Concentration Difficulties score [1, 4]: 7
MADRS Inability to Feel score [1, 4]: 9
MADRS Lassitude score [1, 4]: 10
MADRS Pessimistic Thoughts score [1, 4]: 8
MADRS Suicidal Thoughts score ([1]; 12 mg n=4 sum, Day 1, baseline 8): 5
MADRS Reduced Sleep score ([1]; 12 mg n=4 sum, Day 1, baseline 12): 10
MADRS Inner Tension score ([1]; 12 mg n=4 sum, Day 1, baseline 13): 3
MADRS Concentration Difficulties score [1, 5]: 2
MADRS Inability to Feel score [1, 5]: 1
MADRS Pessimistic Thoughts score [1, 5]: 7
MADRS Concentration Difficulties improvement [1, 6]: 14
MADRS Inability to Feel improvement [1, 6]: 15
MADRS Inner Tension improvement [1, 6]: 10
MADRS Lassitude improvement [1, 6]: 16
MADRS Pessimistic Thoughts improvement [1, 6]: 9
MADRS Reduced Sleep improvement [1, 6]: 2
MADRS Suicidal Thoughts improvement [1, 6]: 3
MADRS Suicidal Thoughts score ([1]; 12 mg n=4 sum, Day 7, baseline 8): 7
MADRS Reduced Sleep score ([1]; 12 mg n=4 sum, Day 7, baseline 12): 6
MADRS Inner Tension score ([1]; 12 mg n=4 sum, Day 7, baseline 13): 5
MADRS Concentration Difficulties score [1, 7]: 3
MADRS Inability to Feel score [1, 7]: 1
MADRS Lassitude score [1, 7]: 3
MADRS Pessimistic Thoughts score [1, 7]: 8
MADRS Concentration Difficulties improvement [1, 8]: 13
MADRS Inability to Feel improvement [1, 8]: 15
MADRS Inner Tension improvement [1, 8]: 8
MADRS Lassitude improvement [1, 8]: 13
MADRS Pessimistic Thoughts improvement [1, 8]: 8
MADRS Pessimistic Thoughts percentage improvement [1, 8]: 50.00%
MADRS Reduced Sleep improvement [1, 8]: 6
MADRS Reduced Sleep percentage improvement [1, 8]: 50.00%
MADRS Suicidal Thoughts improvement [1, 8]: 1
MADRS Concentration Difficulties improvement [1, 9]: 19
MADRS Inability to Feel improvement [1, 9]: 24
MADRS Inner Tension improvement [1, 9]: 15
MADRS Lassitude improvement [1, 9]: 17
MADRS Pessimistic Thoughts improvement [1, 9]: 21
MADRS Pessimistic Thoughts percentage improvement [1, 9]: 75.00%
MADRS Suicidal Thoughts improvement [1, 9]: 8
MADRS Suicidal Thoughts score ([1]; IDR n=8 sum, 2 h after last dose, baseline 11): 3
MADRS Inner Tension score ([1]; IDR n=8 sum, 2 h after last dose, baseline 26): 11
MADRS Lassitude score ([1]; IDR n=8 sum, 2 h after last dose, baseline 27): 10
MADRS Pessimistic Thoughts score ([1]; IDR n=8 sum, 2 h after last dose, baseline 28): 7
MADRS Concentration Difficulties score ([1]; IDR n=8 sum, 2 h after last dose, baseline 30): 11
MADRS Inability to Feel score ([1]; IDR n=8 sum, 2 h after last dose, baseline 36): 12
MADRS Suicidal Thoughts score ([1]; IDR n=8 sum, Day 1, baseline 11): 1
MADRS Reduced Sleep score ([1]; IDR n=8 sum, Day 1, baseline 25): 12
MADRS Inner Tension score ([1]; IDR n=8 sum, Day 1, baseline 26): 6
MADRS Lassitude score ([1]; IDR n=8 sum, Day 1, baseline 27): 5
MADRS Pessimistic Thoughts score ([1]; IDR n=8 sum, Day 1, baseline 28): 4
MADRS Concentration Difficulties score ([1]; IDR n=8 sum, Day 1, baseline 30): 1
MADRS Inability to Feel score ([1]; IDR n=8 sum, Day 1, baseline 36): 2
MADRS Concentration Difficulties improvement ([1]; IDR n=8 sum, Day 1 vs baseline): 29
MADRS Inability to Feel improvement ([1]; IDR n=8 sum, Day 1 vs baseline): 34
MADRS Inner Tension improvement ([1]; IDR n=8 sum, Day 1 vs baseline): 20
MADRS Lassitude improvement ([1]; IDR n=8 sum, Day 1 vs baseline): 22
MADRS Pessimistic Thoughts improvement ([1]; IDR n=8 sum, Day 1 vs baseline): 24
MADRS Reduced Sleep improvement ([1]; IDR n=8 sum, Day 1 vs baseline): 13
MADRS Reduced Sleep percentage improvement ([1]; IDR n=8 sum, Day 1 vs baseline): 52.00%
MADRS Suicidal Thoughts improvement ([1]; IDR n=8 sum, Day 1 vs baseline): 10
MADRS Suicidal Thoughts score ([1]; IDR n=8 sum, Day 7, baseline 11): 3
MADRS Reduced Sleep score ([1]; IDR n=8 sum, Day 7, baseline 25): 9
MADRS Inner Tension score ([1]; IDR n=8 sum, Day 7, baseline 26): 12
MADRS Lassitude score ([1]; IDR n=8 sum, Day 7, baseline 27): 3
MADRS Pessimistic Thoughts score ([1]; IDR n=8 sum, Day 7, baseline 28): 3
MADRS Concentration Difficulties score ([1]; IDR n=8 sum, Day 7, baseline 30): 9
MADRS Inability to Feel score ([1]; IDR n=8 sum, Day 7, baseline 36): 6
MADRS Concentration Difficulties improvement ([1]; IDR n=8 sum, Day 7 vs baseline): 21
MADRS Inability to Feel improvement ([1]; IDR n=8 sum, Day 7 vs baseline): 30
MADRS Inner Tension improvement ([1]; IDR n=8 sum, Day 7 vs baseline): 14
MADRS Lassitude improvement ([1]; IDR n=8 sum, Day 7 vs baseline): 24
MADRS Pessimistic Thoughts improvement ([1]; IDR n=8 sum, Day 7 vs baseline): 25
MADRS Reduced Sleep improvement ([1]; IDR n=8 sum, Day 7 vs baseline): 16
MADRS Reduced Sleep percentage improvement ([1]; IDR n=8 sum, Day 7 vs baseline): 64.00%
MADRS Suicidal Thoughts improvement ([1]; IDR n=8 sum, Day 7 vs baseline): 8
mean MADRS change from baseline at day seven ([1]; Part A, 12 mg): −21.0
mean MADRS change from baseline at day seven, percent ([1]; Part A, 12 mg): −65%
patients with MADRS remission (total score ≤10) on day seven ([1]; Part A, 12 mg, two of four patients): 50%
mean MADRS change from baseline at day seven ([1]; Part A, 18 mg): −12.8
mean MADRS change from baseline at day seven, percent ([1]; Part A, 18 mg): −41%
further patients with MADRS clinical response on day seven ([1]; Part A, 18 mg, one further patient of four): 25%
patients with MADRS remission (total score ≤10) on day seven ([1]; Part A, 18 mg, one of four patients): 25%
patients with MADRS remission (total score ≤10) on day seven ([1]; Part B, IDR, seven of eight patients, p<0.0001): 87.5%
induction of mutation [2]: did not induce mutation
